Laboratory results: US20080033008A1, “COMPOSITIONS AND METHODS FOR TREATING, CONTROLLING, REDUCING, OR AMELIORATING INFECTIONS AND SEQUELAE THEREOF” (priority 2006, published 2008)
“And” between values parts separate entries of the source, which are not always exact repeats. Identical values can stand only once. “Also recorded” adds a separate entry of the source.

Tests used:
[1] = Pupillary diameter measurement, rabbit paracentesis model; type: in vivo; details: raw data per eye; for Diameter (mm) T2: −5 min: 5 min before the first paracentesis; for Diameter (mm) T3: +115 min: 5 min before the second paracentesis; for Diameter (mm) T1: −180 min: −180 min (basal)
Protocol: (§1) Each rabbit was placed in a restraint device and tagged with the alphanumeric code. The formulations were instilled (50 μl) into the conjunctival sac of both eyes 180, 120, 90 and 30 min before the first paracentesis; then 15, 30, 90 min after the first paracentesis. To perform the first paracentesis the animals were anaesthetized by intraveneous injection of 5 mg/kg Zoletil® (Virbac; 2.5 mg/kg tiletamine HCl and 2.5 mg/kg zolazepam HCl) and one drop of local anesthetic (Novesina®, Novartis) was administered to the eye. Anterior chamber paracentesis was performed with a 26 G needle attached to a tuberculin syringe; the needle was introduced into the anterior chamber through the cornea, taking care not to damage the tissues. Two hours after the first paracentesis, the animals were sacrificed with 0.4 ml Tanax® (Intervet International B.V.) and the second paracentesis was performed. About 100 μl of aqueous humor were removed at the second paracentesis. Aqueous humor was immediately split in four aliquots and stored at −80° C. until analysis. Then both eyes were enucleated and the iris-ciliary body was carefully excised, placed in polypropylene tubes, and stored at −80° C. until analysis.
The pupillary diameter of both eyes was measured with a Castroviejo caliper 180 min and 5 min before the first paracentesis and 5 min before the second paracentesis.

[2] = Clinical evaluation by slit lamp (clinical score), rabbit paracentesis model; type: in vivo
Protocol: as §1
The clinical evaluation of both eyes was performed by a slit lamp (4179-T; Sbisa, Italy) at 180 min and 5 min before the first paracentesis and 5 min before the second paracentesis. The clinical score was assigned according to the following scheme:
1=discrete dilatation of iris and conjunctival vessels
2=moderate dilatation of iris and conjunctival vessels
3=intense iridal hyperemia with flare in the anterior chamber
4=intense iridal hyperemia with flare in the anterior chamber and presence of fibrinous exudates.

[3] = tested on: neovascularization and angiogenesis; details: X. Xin et al., J. Biol. Chem. 274:9116-9121 (1999); cited from earlier work
Myeloperoxidase (MPO) = Myeloperoxidase (MPO) activity in iris-ciliary body, rabbit paracentesis model; type: in vivo; details: iris-ciliary body samples collected after the second paracentesis, raw data per eye (DX/SX)
Protocol: 3.9 g of NaH2PO4 2H2O were dissolved in a volumetric flask to 500 ml with water. The pH was adjusted to pH=6 with 3N NaOH.
0.5 g of hexa-decyl-trimethyl-ammonium bromide was dissolved in 100 ml phosphate buffer.
The solution was prepared freshly. Ten microliters of H2O2 (30 wt. %) were diluted to 1 ml with water (solution A). 7.5 mg o-dianisidine 2HCl were dissolved in 45 ml of phosphate buffer and 75 μl of solution A were added.
(§2) Each rabbit was placed in a restraint device and tagged with the alphanumeric code. The formulations were instilled (50 μl) into the conjunctival sac of both eyes 180, 120, 90 and 30 min before the first paracentesis; then 15, 30, 90 min after the first paracentesis. […]
The activity of MPO was measured as previously described by Williams et al. The iris-ciliary bodies were carefully dried, weighed and immersed in 1 ml of hexa-decyl-trimethyl-ammonium bromide solution. […] The change in absorbance at 460 nm was continuously monitored for 5 min by a spectrophotometer (UV/Vis Spectrometer Lambda EZ 201; Perkin Elmer). The slope of the line (Δ/min) was determined for each sample and used to calculate the number of units of MPO in the tissue as follows:
Values were expressed as units of MPO/g of tissue.

[4] = Rabbit paracentesis model of ocular inflammation, overall conclusions; type: in vivo; details: 0.1%, 0.5% and 1% topical formulations; preliminary conclusions; listed as BOL-303242-X
Description: Inflammatory processes are multidimensional in origin, and are characterized by complex cellular and molecular events involving numerous components all of which have not been identified. Prostaglandins are among these mediators and play an important role in certain forms of ocular inflammation. Paracentesis of the anterior chamber in the rabbit eye induces inflammatory reaction due to the disruption of the blood-aqueous barrier (“BAB”), which is mediated, at least in part, by prostaglandin E2 [References 1-3 below]. Intraocular or topical administration of PGE2 disrupts the BAB. [Reference 4, below] The treatment schedule adopted in this study was similar to the clinical NSAIDs (Ocufen) treatment schedule used by surgeons for patients before cataract surgery.
as §2
Pupillary diameter, PGE2, protein, PMN, and MPO were expressed as mean ±SEM. […] Clinical score was expressed as % of eyes and the statistical analysis was performed using Kruskal-Wallis followed by a Dunn post hoc test. […]

[5] = Very preliminary data (not shown) on side effects of corticosteroids

Row | Structure (SMILES) | Diameter (mm) T2: −5 min ([1]; 0.5% topical) | Diameter (mm) T3: +115 min ([1]; 0.5% topical) | Diameter (mm) T1: −180 min ([1]; 0.5% topical) | Clinical score expressed as percentage of eyes, Score (%) 0 ([2]; 0.5% topical, −5 min) | Clinical score expressed as percentage of eyes, Score (%) 0 ([2]; 0.5% topical, −180 min (basal)) | Diameter (mm) T2: −5 min ([1]; 0.1% topical) | Diameter (mm) T3: +115 min ([1]; 0.1% topical) | Diameter (mm) T1: −180 min ([1]; 0.1% topical) | Clinical score expressed as percentage of eyes, Score (%) 3 ([2]; 0.1% topical, +115 min) | Clinical score expressed as percentage of eyes, Score (%) 0 ([2]; 0.1% topical, −5 min) | Clinical score expressed as percentage of eyes, Score (%) 0 ([2]; 0.1% topical, −180 min (basal)) | other results
1 | CCOC(=O)O[C@]1(C(=O)OCCl)CC[C@H]2[C@@H]3CCC4=CC(=O)C=C[C@]4(C)[C@H]3[C@@H](O)C[C@@]21C [LE, loteprednol etabonate] | 6.0 mm and 6.5 mm | 4.5 mm and 5.0 mm and 5.5 mm and 6.0 mm | 6.0 mm and 6.5 mm | 100% | 100% | – | – | – | – | – | – | Clinical score expressed as percentage of eyes, Score (%) 1 ([2]; 0.5% topical, +115 min): 75%; Clinical score expressed as percentage of eyes, Score (%) 2 ([2]; 0.5% topical, +115 min): 25%
2 | CC(C(=O)O)c1ccc(-c2ccccc2)c(F)c1 (centres unmarked) [F, flurbiprofen] | – | – | – | – | – | – | – | – | – | – | – | Diameter (mm) T2: −5 min ([1]; 0.03% topical): 6.0 mm and 6.5 mm and 7.0 mm and 5.5 mm; Diameter (mm) T3: +115 min ([1]; 0.03% topical): 4.0 mm and 3.5 mm and 5.5 mm and 5.0 mm and 4.5 mm and 6.0 mm; Diameter (mm) T1: −180 min ([1]; 0.03% topical): 5.0 mm and 7.0 mm and 6.0 mm and 5.5 mm; Clinical score expressed as percentage of eyes, Score (%) 2 ([2]; 0.03% topical, +115 min): 100%; Clinical score expressed as percentage of eyes, Score (%) 0 ([2]; 0.03% topical, −5 min): 100%; Clinical score expressed as percentage of eyes, Score (%) 0 ([2]; 0.03% topical, −180 min (basal)): 100%
3 | C[C@@H]1C[C@H]2[C@@H]3CCC4=CC(=O)C=C[C@]4(C)[C@@]3(F)[C@@H](O)C[C@]2(C)[C@@]1(O)C(=O)CO [Dex, dexamethasone] | – | – | – | – | – | 5.5 mm and 6.5 mm and 6.0 mm and 7.0 mm and 7.5 mm | 5.5 mm and 6.0 mm and 4.5 mm and 5.0 mm and 6.5 mm | 6.0 mm and 7.0 mm and 5.5 mm and 6.5 mm | 25% | 75% | 100% | Clinical score expressed as percentage of eyes, Score (%) 1 ([2]; 0.1% topical, +115 min): 75%; Clinical score expressed as percentage of eyes, Score (%) 1 ([2]; 0.1% topical, −5 min): 25%
4 | CCCCCC=CC=C1C(=O)C=C[C@@H]1CC=CCCCC(=O)O [15-deoxy-Δ-12,14-prostaglandin J2] | – | – | – | – | – | – | – | – | – | – | – | Neovascularization and angiogenesis in the rat cornea [3]: inhibit neovascularization and angiogenesis
5 | Cc1ccc2c(NCC(O)(CC(C)(C)c3cc(F)cc4c3OCC4)C(F)(F)F)cccc2n1 (centres unmarked) [BOL] | 8.0 mm and 7.0 mm and 7.5 mm | 6.5 mm and 6.0 mm and 7.0 mm | 8.0 mm and 7.0 mm and 7.5 mm | 100% | 100% | 6.5 mm and 7.0 mm and 7.5 mm | 5.0 mm and 6.0 mm and 6.5 mm and 5.5 mm | 6.5 mm and 7.0 mm and 7.5 mm | 25% | 100% | 100% | Diameter (mm) T2: −5 min ([1]; 1% topical): 6.0 mm and 6.5 mm and 7.0 mm; Diameter (mm) T3: +115 min ([1]; 1% topical): 5.5 mm and 5.0 mm and 6.0 mm; Diameter (mm) T1: −180 min ([1]; 1% topical): 6.0 mm and 6.5 mm; Clinical score expressed as percentage of eyes, Score (%) 2 ([2]; 0.1% topical, +115 min): 75%; Clinical score expressed as percentage of eyes, Score (%) 2 ([2]; 1% topical, +115 min): 100%; Clinical score expressed as percentage of eyes, Score (%) 0 ([2]; 1% topical, −5 min): 100%; Clinical score expressed as percentage of eyes, Score (%) 0 ([2]; 1% topical, −180 min (basal)): 100%; MPO (Myeloperoxidase (MPO); 0.1% treatment): 1.00 Unit/g and 0.61 Unit/g and 0.65 Unit/g; MPO (Myeloperoxidase (MPO); 0.5% treatment): 0.85 Unit/g and 0.93 Unit/g and 0.79 Unit/g and 0.75 Unit/g and 0.74 Unit/g and 0.54 Unit/g and 0.58 Unit/g; Anti-inflammatory activity in the rabbit paracentesis model (conclusion) [4]: active in this model; also recorded: as effective an anti-inflammatory drug as some of the commonly accepted prior-art steroids or NSAID; Side effects of corticosteroids [5]: does not have some of the side effects of corticosteroids
